Laboratory results published in patent US10538567B2, “Compounds as peptidic trigonal GLP1/glucagon/GIP receptor agonists” (priority 2016, dated 2020).
Numbered stars: 1 amine (or outer) side, 2 acyl side, 3 side chain; on linkers, the order of the positions; unused ones are H or OH. Square brackets hold non-standard residues; d marks the D form. Side chains are listed from the residue outwards. Peptide text beside a SMILES is read from it. * marks the point of attachment. γGlu = O=C(O)[C@H](CCC(=O)[*:2])N[*:1]; Palmitoyl = CCCCCCCCCCCCCCCC(=O)*; Aib = CC(C)(N)C(=O)O

Tests used:
[1] = biological target: T1, human GIP receptor (Homo sapiens, UniProt P48546); experiment: cAMP response (HTRF) of HEK-293 cells stably expressing human GIP receptor; format: cell-based; settings: Table 8; read-out: EC50 hGIP R
T1 construct: expressed in transfected cells; host or cells: HEK-293
T1 sequence (P48546 22-466): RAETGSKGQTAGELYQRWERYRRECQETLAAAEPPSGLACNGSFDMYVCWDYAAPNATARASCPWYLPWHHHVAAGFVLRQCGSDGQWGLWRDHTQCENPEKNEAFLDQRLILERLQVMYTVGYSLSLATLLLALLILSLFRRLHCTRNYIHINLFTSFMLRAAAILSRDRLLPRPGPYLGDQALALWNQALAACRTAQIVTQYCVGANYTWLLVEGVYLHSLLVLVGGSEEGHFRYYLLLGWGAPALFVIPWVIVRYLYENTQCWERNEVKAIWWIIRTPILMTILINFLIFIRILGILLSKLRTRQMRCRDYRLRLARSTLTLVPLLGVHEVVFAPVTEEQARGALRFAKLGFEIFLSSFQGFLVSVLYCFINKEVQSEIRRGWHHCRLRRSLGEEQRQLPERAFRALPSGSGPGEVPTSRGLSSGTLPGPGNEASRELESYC
Protocol: Agonism of compounds for the receptors was determined by functional assays measuring cAMP response of HEK-293 cell lines stably expressing human GLP-1, GIP or glucagon receptor.
cAMP content of cells was determined using a kit from Cisbio Corp. (cat. no. 62AM4PEJ) based on HTRF (Homogenous Time Resolved Fluorescence). For preparation, cells were split into T175 culture flasks and grown overnight to near confluency in medium (DMEM/10% FBS). Medium was then removed and cells washed with PBS lacking calcium and magnesium, followed by proteinase treatment with accutase (Sigma-Aldrich cat. no. A6964). Detached cells were washed and resuspended in assay buffer (1×HBSS; 20 mM HEPES, 0.1% BSA, 2 mM IBMX) and cellular density determined. They were then diluted to 400000 cells/ml and 25 μl-aliquots dispensed into the wells of 96-well plates. For measurement, 25 μl of test compound in assay buffer was added to the wells, followed by incubation for 30 minutes at room temperature. After addition of HTRF reagents diluted in lysis buffer (kit components), the plates were incubated for 1 hr, followed by measurement of the fluorescence ratio at 665/616 nm. In vitro potency of agonists was quantified by determining the concentrations that caused 50% activation of maximal response (EC50).
Potencies of peptidic compounds at the GLP-1, glucagon and GIP receptors were determined by exposing cells expressing human glucagon receptor (hGlucagon R), human GIP receptor (hGIP-R) or human GLP-1 receptor (hGLP-1 R) to the listed compounds at increasing concentrations and measuring the formed cAMP as described in Methods.

[2] = Dynamic light scattering, hydrodynamic radius as surrogate for DLS interaction parameter kD; format: physicochemical; settings: for Delta Rh [nm] = Rh5 − Rh1: DLS buffer system A pH 4.5; for Rh1 [nm] c = 1 mg/ml / Rh5 [nm] c = 5 mg/ml: hydrodynamic radius, DLS buffer system A pH 4.5, method C, 25° C.
Excerpt: A monochromatic and coherent light beam (laser) is used to illuminate the liquid sample. Dynamic Light Scattering (DLS) measures light scattered from particles (1 nm≤radius≤1 μm) that undergo Brownian motion. This motion is induced by collisions between the particles and solvent molecules that themselves are moving due to their thermal energy. The diffusional motion of the particles results in temporal fluctuations of the scattered light [Pecora, R. Dynamic Light Scattering: Applications of Photon Correlation Spectroscopy, Plenum Press, 1985].
The scattered light intensity fluctuations are recorded and transformed into an autocorrelation function. By fitting the autocorrelation curve to an exponential function, the diffusion coefficient D of the particles in solution can be derived. The diffusion coefficient is then used to calculate the hydrodynamic radius Rh (or apparent Stokes radius) through the Stokes-Einstein equation assuming spherical particles. This calculation is defined in ISO 13321 and ISO 22412 [International Standard ISO13321 Methods for Determination of Particle Size Distribution Part 8: Photon Correlation Spectroscopy, International Organisation for Standardisation (ISO) 1996; International Standard ISO22412 Particle Size Analysis—Dynamic Light Scattering, International Organisation for Standardisation (ISO) 2008].
For every peptide solution, the hydrodynamic radius Rh and the diffusion constant D (related via the Stokes-Einstein equation) were determined as an average over triplicates. Both parameters were determined at different peptide concentrations (e.g., Rh1 and D1: 1 mg/ml and Rh5 and D5: 5 mg/ml) in the same buffer system. The difference of these parameters between low and high peptide concentration is a surrogate for the DLS interaction parameter kD. Rh5<Rh1 or D5>D1 correspond to kD>0 and therefore to repulsive inter-particle interactions that result in improved physical (or colloidal) stability.
DLS buffer system A) 25 mM acetate buffer pH 4.5, 3 mg/mL L-Methionine, 2.7 mg/mL m-cresol, 18 mg/mL Glycerol 85%
DLS Method C: DLS measurements were performed on a DynaPro Plate Reader II (Wyatt Technology, Santa Barbara, Calif., US) and using one of the following black, low volume, and non-treated plates: polystyrene 384 assay plate with clear bottom (Corning, N.Y., US), polystyrene 96 assay plate with clear bottom (Corning, N.Y., US), cyclo olefin polymer (COP) 384 assay plate with clear bottom (Aurora, Mont., US), or polystyrene 384 assay plate with clear bottom (Greiner Bio-One, Germany). The data were processed with the Dynamics software provided by Wyatt Technology. Parameters of the particle size distribution were determined with non-negatively constrained least squares (NNLS) methods using DynaLS algorithms. Measurements were taken at 25° C. with an 830 nm laser light source at an angle of 158°.
The hydrodynamic radius Rh of peptide samples was determined at different peptide concentrations (1 mg/ml and 5 mg/ml) in DLS buffer system A using DLS method C as described in Methods as surrogate for the DLS interaction parameter kD.

Row | EC50 [1] | Delta Rh [nm] = Rh5 − Rh1 [2] | Rh1 [nm] c = 1 mg/ml [2] | Rh5 [nm] c = 5 mg/ml [2] | SMILES
1 | 2.6 pM |  |  |  | CCCCCCCCCCCCCCCC(=O)N[C@@H](CCC(=O)N[C@@H](CCC(=O)NCCCC[C@H](NC(=O)[C@H](CC(C)C)NC(=O)[C@H](CCCCN)NC(=O)[C@H](CO)NC(=O)[C@H](CC(C)C)NC(=O)[C@H](CC(=O)O)NC(=O)[C@H](CO)NC(=O)[C@@H](NC(=O)[C@H](Cc1ccccc1)NC(=O)[C@@H](NC(=O)CNC(=O)[C@H](Cc1c[nH]cn1)NC(=O)C(C)(C)NC(=O)[C@@H](N)Cc1c[nH]cn1)[C@@H](C)O)[C@@H](C)O)C(=O)N[C@@H](CCC(=O)O)C(=O)N[C@@H](CCC(=O)O)C(=O)N[C@@H](CCC(N)=O)C(=O)N[C@@H](CCCNC(=N)N)C(=O)N[C@@H](CCC(N)=O)C(=O)N[C@@H](CCCCN)C(=O)N[C@@H](CCC(=O)O)C(=O)N[C@@H](Cc1ccccc1)C(=O)N[C@H](C(=O)N[C@@H](CCC(=O)O)C(=O)N[C@@H](Cc1c[nH]c2ccccc12)C(=O)N[C@@H](CC(C)C)C(=O)N[C@@H](CCCCN)C(=O)N[C@@H](C)C(=O)N[C@H](C)C(=O)NCC(=O)N[C@@H](Cc1c[nH]cn1)C(=O)N1CCC[C@H]1C(=O)N[C@@H](CO)C(=O)NC(C)(C)C(=O)N[C@@H](CCCCN)C(=O)N1CCC[C@H]1C(=O)N1CCC[C@H]1C(=O)N1CCC[C@H]1C(=O)N[C@@H](CCCCN)C(N)=O)[C@@H](C)CC)C(=O)O)C(=O)O [SEQ ID NO: 7, H-Aib-H-G-T-F-T-S-D-L-S-K-L-K[gGlu-gGlu-Palm]-E-E-Q-R-Q-K-E-F-I-E-W-L-K-A-dAla-G-H-P-S-Aib-K-P-P-P-K-NH2] (H-H[Aib]HGTFTSDLSKLK([γGlu-γGlu-Palmitoyl])EEQRQKEFIEWLKA[dA]GHPS[Aib]KPPPK-NH2)
2 | 1.9 pM | −0.3 nm | 2.9 nm | 2.6 nm | CCCCCCCCCCCCCCCC(=O)N[C@@H](CCC(=O)N[C@@H](CCC(=O)NCCCC[C@H](NC(=O)[C@H](CC(C)C)NC(=O)[C@H](CCCCN)NC(=O)[C@H](CO)NC(=O)[C@H](CC(C)C)NC(=O)[C@H](CC(=O)O)NC(=O)[C@H](CO)NC(=O)[C@@H](NC(=O)[C@H](Cc1ccccc1)NC(=O)[C@@H](NC(=O)CNC(=O)[C@H](Cc1c[nH]cn1)NC(=O)C(C)(C)NC(=O)[C@@H](N)Cc1c[nH]cn1)[C@@H](C)O)[C@@H](C)O)C(=O)N[C@@H](CCC(=O)O)C(=O)N[C@@H](CCC(=O)O)C(=O)N[C@@H](CCC(N)=O)C(=O)N[C@@H](CCCNC(=N)N)C(=O)N[C@@H](CCC(N)=O)C(=O)NC(C)(C)C(=O)N[C@@H](CCC(=O)O)C(=O)N[C@@H](Cc1ccccc1)C(=O)N[C@H](C(=O)N[C@@H](CCC(=O)O)C(=O)N[C@@H](Cc1c[nH]c2ccccc12)C(=O)N[C@@H](CC(C)C)C(=O)N[C@@H](CCCCN)C(=O)N[C@@H](C)C(=O)NCC(=O)NCC(=O)N[C@@H](Cc1c[nH]cn1)C(=O)N1CCC[C@H]1C(=O)N[C@@H](CO)C(=O)NC(C)(C)C(=O)N[C@@H](CCCCN)C(=O)N1CCC[C@H]1C(=O)N1CCC[C@H]1C(=O)N1CCC[C@H]1C(=O)N[C@@H](CCCCN)C(N)=O)[C@@H](C)CC)C(=O)O)C(=O)O [SEQ ID NO: 12, H-Aib-H-G-T-F-T-S-D-L-S-K-L-K[gGlu-gGlu-Palm]-E-E-Q-R-Q-Aib-E-F-I-E-W-L-K-A-G-G-H-P-S-Aib-K-P-P-P-K-NH2]
3 |  | −0.3 nm | 2.8 nm | 2.5 nm | CCCCCCCCCCCCCCCC(=O)N[C@@H](CCC(=O)N[C@@H](CCC(=O)NCCCC[C@H](NC(=O)[C@H](CC(C)C)NC(=O)[C@H](CCCCN)NC(=O)[C@H](CO)NC(=O)[C@H](CC(C)C)NC(=O)[C@H](CC(=O)O)NC(=O)[C@H](CO)NC(=O)[C@@H](NC(=O)[C@H](Cc1ccccc1)NC(=O)[C@@H](NC(=O)CNC(=O)[C@H](Cc1c[nH]cn1)NC(=O)C(C)(C)NC(=O)[C@@H](N)Cc1c[nH]cn1)[C@@H](C)O)[C@@H](C)O)C(=O)N[C@@H](CCC(=O)O)C(=O)N[C@@H](CCC(=O)O)C(=O)N[C@@H](CCC(N)=O)C(=O)N[C@@H](CCCNC(=N)N)C(=O)N[C@@H](CCC(N)=O)C(=O)NC(C)(C)C(=O)N[C@@H](CCC(=O)O)C(=O)N[C@@H](Cc1ccccc1)C(=O)N[C@H](C(=O)N[C@@H](CCC(=O)O)C(=O)N[C@@H](Cc1c[nH]c2ccccc12)C(=O)N[C@@H](CC(C)C)C(=O)N[C@@H](CCCCN)C(=O)N[C@@H](C)C(=O)N[C@H](C)C(=O)NCC(=O)N[C@@H](Cc1c[nH]cn1)C(=O)N1CCC[C@H]1C(=O)N[C@@H](CO)C(=O)NC(C)(C)C(=O)N[C@@H](CCCCN)C(=O)N1CCC[C@H]1C(=O)N1CCC[C@H]1C(=O)N1CCC[C@H]1C(=O)N[C@@H](CCCCN)C(N)=O)[C@@H](C)CC)C(=O)O)C(=O)O [SEQ ID NO: 13, H-Aib-H-G-T-F-T-S-D-L-S-K-L-K[gGlu-gGlu-Palm]-E-E-Q-R-Q-Aib-E-F-I-E-W-L-K-A-dAla-G-H-P-S-Aib-K-P-P-P-K-NH2] (H-H[Aib]HGTFTSDLSKLK([γGlu-γGlu-Palmitoyl])EEQRQ[Aib]EFIEWLKA[dA]GHPS[Aib]KPPPK-NH2)
